Legend:
Adenosine receptor A2a = Adenosine receptor A2a (Homo sapiens, UniProt P29274); assay: Displacement of [3H]ZM241385 from human recombinant A2A receptor expressed in human HeLa cell membranes at 1 uM incubated for 30 mins by radioligand binding competition assay relative to control
[1] = target: T1, Adenosine receptor A1 (Homo sapiens) (UniProt P30542); assay: Displacement of [3H]DPCPX from human recombinant A1 receptor expressed in CHOA1 cell membranes at 1 uM incubated for 60 mins by radioligand binding competition assay relative to control
T1 sequence (whole entry): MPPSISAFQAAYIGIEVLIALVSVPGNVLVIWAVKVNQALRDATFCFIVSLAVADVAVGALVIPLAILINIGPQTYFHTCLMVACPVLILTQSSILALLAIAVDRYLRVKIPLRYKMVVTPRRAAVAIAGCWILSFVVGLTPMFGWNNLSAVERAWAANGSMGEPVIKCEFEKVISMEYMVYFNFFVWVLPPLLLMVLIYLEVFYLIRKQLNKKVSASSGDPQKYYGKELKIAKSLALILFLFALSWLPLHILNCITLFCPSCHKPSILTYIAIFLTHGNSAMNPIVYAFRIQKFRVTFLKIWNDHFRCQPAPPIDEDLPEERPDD

Adenosine receptor A2b = target: T2, Adenosine receptor A2b (Homo sapiens, UniProt P29275); assay: Displacement of [3H]DPCPX from human recombinant A2B receptor expressed in human HEK293 cell membranes incubated for 30 mins by radioligand binding competition assay
T2 sequence (P29275 whole entry): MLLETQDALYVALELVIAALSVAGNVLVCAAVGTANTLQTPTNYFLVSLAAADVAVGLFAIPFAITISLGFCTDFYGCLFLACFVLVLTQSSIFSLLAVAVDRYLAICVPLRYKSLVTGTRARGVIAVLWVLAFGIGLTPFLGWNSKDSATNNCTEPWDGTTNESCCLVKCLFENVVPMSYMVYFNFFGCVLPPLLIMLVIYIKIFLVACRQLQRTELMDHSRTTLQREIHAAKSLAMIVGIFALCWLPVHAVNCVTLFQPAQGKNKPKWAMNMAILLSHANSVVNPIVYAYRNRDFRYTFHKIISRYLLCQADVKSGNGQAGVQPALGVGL

[2] = target: T3, Adenosine receptor A3 (Homo sapiens) (UniProt P0DMS8); assay: Displacement of [3H]NECA from human A3 receptor expressed in human HeLa cell membranes at 1 uM incubated for 180 mins by radioligand binding competition assay relative to control
T3 sequence (whole entry): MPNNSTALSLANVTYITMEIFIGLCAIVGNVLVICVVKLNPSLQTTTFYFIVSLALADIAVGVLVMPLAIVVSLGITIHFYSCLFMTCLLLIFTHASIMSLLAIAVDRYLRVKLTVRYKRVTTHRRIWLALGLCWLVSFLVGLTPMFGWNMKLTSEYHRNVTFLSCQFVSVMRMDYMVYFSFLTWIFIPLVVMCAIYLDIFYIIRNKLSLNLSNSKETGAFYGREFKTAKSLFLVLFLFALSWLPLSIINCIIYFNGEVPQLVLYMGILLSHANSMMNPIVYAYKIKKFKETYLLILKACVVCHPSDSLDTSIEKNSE

Homo sapiens [3] = species: Homo sapiens; assay: Selectivity index, ratio of Ki for displacement of [3H]DPCPX from human recombinant A1 receptor expressed in CHOA1 cell membranes incubated for 60 mins by radioligand binding competition assay to Ki for displacement of [3H]DPCPX from human recombinant A2B receptor expressed in human HEK293 cell membranes at 1 uM incubated for 30 mins by radioligand binding competition assay
Homo sapiens [4] = species: Homo sapiens; assay: Selectivity index, ratio of Ki for displacement of [3H]ZM241385 from human recombinant A2A receptor expressed in human HeLa cell membranes incubated for 30 mins by radioligand binding competition assay to Ki for displacement of [3H]DPCPX from human recombinant A2B receptor expressed in human HEK293 cell membranes at 1 uM incubated for 30 mins by radioligand binding competition assay
Homo sapiens [5] = species: Homo sapiens; assay: Selectivity index, ratio of Ki for displacement of [3H]NECA from human A3 receptor expressed in human HeLa cell membranes incubated for 180 mins by radioligand binding competition assay to Ki for displacement of [3H]DPCPX from human recombinant A2B receptor expressed in human HEK293 cell membranes at 1 uM incubated for 30 mins by radioligand binding competition assay
[6] = target: T4, Adenosine receptor A2b (Homo sapiens) (UniProt P29275); assay: Displacement of [3H]DPCPX from human recombinant A2B receptor expressed in human HEK293 cell membranes at 1 uM incubated for 30 mins by radioligand binding competition assay relative to control
T4 sequence (whole entry): T2 sequence (P29275 whole entry)

Adenosine receptor A2a, sequence (P29274 whole entry): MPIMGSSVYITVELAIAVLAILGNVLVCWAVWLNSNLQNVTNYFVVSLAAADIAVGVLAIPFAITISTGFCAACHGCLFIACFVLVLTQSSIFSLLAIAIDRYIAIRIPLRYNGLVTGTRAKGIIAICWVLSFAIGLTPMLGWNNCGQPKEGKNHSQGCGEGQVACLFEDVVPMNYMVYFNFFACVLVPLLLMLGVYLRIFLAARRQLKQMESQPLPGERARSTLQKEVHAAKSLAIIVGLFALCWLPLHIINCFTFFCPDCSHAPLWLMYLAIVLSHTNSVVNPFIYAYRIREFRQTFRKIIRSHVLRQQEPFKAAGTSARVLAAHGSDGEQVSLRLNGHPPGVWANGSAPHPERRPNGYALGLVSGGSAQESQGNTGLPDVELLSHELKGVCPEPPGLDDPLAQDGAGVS

SMILES	inhibition (Adenosine receptor A2a) [%]	inhibition [1] [%]	Ki (Adenosine receptor A2b) [nM]	inhibition [2] [%]	Ratio Ki (Homo sapiens [3])	Ratio Ki (Homo sapiens [4])	Ratio Ki (Homo sapiens [5])	inhibition [6] [%]
CC1=C(C(=O)O[C@@H](C)C(F)(F)F)[C@@H](c2ccco2)n2c(nc3ccccc32)N1	5	22	8.73	21	–	–	–	–
CC1=C(C(=O)OCC(F)(F)F)[C@@H](c2ccco2)n2c(nc3ccccc32)N1	1	9	11.2	7	–	–	–	–
CC1=C(C(=O)O[C@H](C)C(F)(F)F)[C@@H](c2ccco2)n2c(nc3ccccc32)N1	1	12	6.91	14	–	–	–	–
CCOC(=O)C1=C(C(F)(F)F)Nc2nc3ccccc3n2[C@@H]1c1ccoc1	9	11	13.7	3	–	–	–	–
CC1=C(C(=O)O[C@@H](C)C(F)(F)F)C(c2ccco2)n2c(nc3ccccc32)N1 (mixture of isomers)	1	26	15.1	7	–	–	–	–
CC1=C(C(=O)O[C@H](C)C(F)(F)F)C(c2ccco2)n2c(nc3ccccc32)N1 (mixture of isomers)	11	12	17	23	–	–	–	–
CC(C)OC(=O)C1=C(C(F)(F)F)Nc2nc3ccccc3n2C1c1ccoc1 (racemic)	23	8	49.2	23	> 1000	> 1000	> 1000	–
CC1=C(C(=O)OCC(F)(F)F)C(c2ccoc2)NC(=O)N1 (racemic)	9	13	588	1	–	–	–	–
CC1=C(C(=O)OCC(F)(F)F)C(c2ccco2)NC(=O)N1 (racemic)	1	10	157	1	–	–	–	–
CC1=C(C(=O)OC(C)C(F)(F)F)C(c2ccco2)n2c(nc3ccccc32)N1 (racemic)	4	3	29.6	18	–	–	–	–
CCOC(=O)C1=C(C(F)(F)F)Nc2nc3ccccc3n2C1c1ccoc1 (racemic)	18	9	37.4	6	–	–	–	–
CCOC(=O)C1=C(C(F)(F)F)NC(=O)NC1c1ccsc1 (racemic)	46	32	575	3	–	–	–	–
CCOC(=O)C1=C(C(F)(F)F)NC(=O)NC1c1ccoc1 (racemic)	55	37	521	1	–	–	–	–
CC1=C(C(=O)OCC(F)(F)F)C(c2ccco2)n2c(nc3ccccc32)N1 (racemic)	7	16	27	23	–	–	–	–
CCOC(=O)C1=C(C(F)(F)F)Nc2nc3ccccc3n2C1c1ccco1 (racemic)	4	11	731	20	–	–	–	–
CCOC(=O)C1=C(C(F)(F)F)Nc2nc3ccccc3n2C1c1ccsc1 (racemic)	13	16	118	29	–	–	–	–
CC(C)OC(=O)C1=C(C(F)(F)F)NC(=O)NC1c1ccco1 (racemic)	24	11	238	5	–	–	–	–
CC(C)OC(=O)C1=C(C(F)(F)F)NC(=O)NC1c1ccsc1 (racemic)	9	23	651	3	–	–	–	–
CC(C)OC(=O)C1=C(C(F)(F)F)Nc2nc3ccccc3n2C1c1ccco1 (racemic)	10	3	–	5	–	–	–	39
CC(C)OC(=O)C1=C(C(F)(F)F)Nc2nc3ccccc3n2C1c1cccs1 (racemic)	1	4	–	1	–	–	–	17

SMILES	inhibition (Adenosine receptor A2a) [%]	inhibition [1] [%]	Ki (Adenosine receptor A2b) [nM]	inhibition [2] [%]	Ratio Ki (Homo sapiens [3])	Ratio Ki (Homo sapiens [4])	Ratio Ki (Homo sapiens [5])	inhibition [6] [%]
CC(C)OC(=O)C1=C(C(F)(F)F)Nc2nc3ccccc3n2C1c1ccsc1 (racemic)	3	10	–	2	–	–	–	48
CC1=C(C(=O)OC(C(F)(F)F)C(F)(F)F)C(c2ccco2)n2c(nc3ccccc32)N1 (racemic)	2	16	–	24	–	–	–	16
CC1=C(C(=O)OC(C(F)(F)F)C(F)(F)F)C(c2cccs2)n2c(nc3ccccc32)N1 (racemic)	10	11	–	19	–	–	–	7
CC1=C(C(=O)OC(C(F)(F)F)C(F)(F)F)C(c2ccoc2)n2c(nc3ccccc32)N1 (racemic)	10	24	–	6	–	–	–	21
CC1=C(C(=O)OC(C(F)(F)F)C(F)(F)F)C(c2ccsc2)NC(=O)N1 (racemic)	1	17	–	8	–	–	–	1
CC1=C(C(=O)OC(C(F)(F)F)C(F)(F)F)C(c2ccsc2)n2c(nc3ccccc32)N1 (racemic)	15	3	–	1	–	–	–	1
CC1=C(C(=O)OC(C)C(F)(F)F)C(c2cccs2)n2c(nc3ccccc32)N1 (racemic)	2	34	–	4	–	–	–	27
CC1=C(C(=O)OC(C)C(F)(F)F)C(c2ccsc2)n2c(nc3ccccc32)N1 (racemic)	24	2	–	2	–	–	–	47
CC1=C(C(=O)OCC(F)(F)F)C(c2cccs2)n2c(nc3ccccc32)N1 (racemic)	7	1	–	2	–	–	–	6
CC1=C(C(=O)OCC(F)(F)F)C(c2ccsc2)n2c(nc3ccccc32)N1 (racemic)	17	7	–	2	–	–	–	30
CCOC(=O)C1=C(C(F)(F)F)Nc2nc3ccccc3n2C1c1cccs1 (racemic)	4	7	–	19	–	–	–	38
CC1=C(C(=O)OC(C)C(F)(F)F)C(c2ccco2)NC(=O)N1 (stereo in doubt; 14i-D1)	–	–	61.5	–	–	–	–	–
CC1=C(C(=O)OC(C)C(F)(F)F)C(c2ccco2)NC(=O)N1 (stereo in doubt; 14i-D2)	–	–	303	–	–	–	–	–
CC1=C(C(=O)OC(C)C(F)(F)F)C(c2ccoc2)NC(=O)N1 (stereo in doubt; 14j-D1)	–	–	234	–	–	–	–	–
CC1=C(C(=O)OC(C)C(F)(F)F)C(c2ccoc2)NC(=O)N1 (stereo in doubt; 14j-D2)	1	1	–	5	–	–	–	23
CC1=C(C(=O)OC(C)C(F)(F)F)C(c2cccs2)NC(=O)N1 (stereo in doubt; 14k-D1)	2	12	–	3	–	–	–	4
CC1=C(C(=O)OC(C)C(F)(F)F)C(c2cccs2)NC(=O)N1 (stereo in doubt; 14k-D2)	1	16	–	3	–	–	–	1
CC1=C(C(=O)OC(C)C(F)(F)F)C(c2ccsc2)NC(=O)N1 (stereo in doubt; 14l-D1)	–	–	643	–	–	–	–	–
CC1=C(C(=O)OC(C)C(F)(F)F)C(c2ccsc2)NC(=O)N1 (stereo in doubt; 14l-D2)	2	3	–	1	–	–	–	1

Reference: ChEMBL document CHEMBL4414598, “Trifluorinated Pyrimidine-Based A2B Antagonists: Optimization and Evidence of Stereospecific Recognition” (J Med Chem, 2019)
